# Source: PMC3479139, “Diverse Small Molecule Inhibitors of Human Apurinic/Apyrimidinic Endonuclease APE1 Identified from a Screen of a Large Public Collection” (PLoS ONE, 2012)
# How the values were obtained:
# E. coli Endo IV = target: T1, E. coli Endo IV (Escherichia coli, UniProt P0A6C1); assay: E. coli Endo IV profiling counterscreen; assay type: biochemical; settings: read-out: EndoIV IC50;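 further: selectivity counterscreen of candidate APE1 inhibitors against the bacterial endonuclease Endo IV, run in the same assay format as the primary APE1 high-throughput screen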
# T1 construct: made in house
# Description: In order to screen out nonselective compounds, such as non-specific DNA binders and inhibitors of related enzymes, we used a miniaturized ThO DNA displacement assay and a counterscreen against the bacterial endonuclease E. coli Endo IV, respectively, following the previously published protocols [21].
# To probe the selectivity of the candidate APE1 inhibitors, we tested them against E. coli EndoIV [36], employing the same assay as used in the HTS.
# [1] = target: double-stranded 17-mer DNA fragment; assay: ThO (Thiazole Orange) DNA displacement assay; assay type: binding; settings: read-out: ThO-DNA binding IC50;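 further: miniaturized displacement of the intercalating dye from unlabeled duplex DNA, used to flag nonspecific DNA binders, chiefly intercalators, groove binders may be missed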
# HeLa cells = assay: MMS potentiation assay (CellTiter Glo viability); assay type: cell-based, human; parameters: key: N.A., no activity observed; P, positive; I, inconclusive; N.T., not tested; settings: for MMS Assay: potentiation of the genotoxic effect of methylmethane sulfonate
# Procedure: HeLa cells were plated at 6000 cells/well in DMEM culture medium containing 10% FBS into white solid bottom 384-well cell culture plates. The plates were incubated at 37°C overnight for cell attachment, followed by media replacement. The fresh medium contained serial dilutions of compounds of interest in the presence (0.4 mM final) or absence of MMS. The plates were incubated for 24 h at 37°C. Cell viability was determined by luminescence detection after an addition of 15 µL of CellTiter Glo reagent (Promega, Madison, WI). Percent viability was calculated for each concentration of compound tested in duplicate by relating the corresponding luminescence to that of a negative DMSO vehicle control. MMS potentiation trends were defined as follows: negative (-), if cell viability in the compound-plus-MMS treatment was the same as that of the DMSO-plus-MMS control (overlapping dose-response curves); inconclusive (I), if the shift in the cell viability dose-response upon MMS inclusion relative to compound-alone was less than 30%; and positive (P), if the difference between the compound-plus-MMS and compound-alone curves was at least 30%, and maintained within at least a two-fold compound concentration span.
# To examine the biological prospects of the top compounds, we tested their ability to inhibit APE1 DNA repair activity by assessing enhancement of MMS toxicity in mammalian cells. MMS creates methylated-base damage to genomic DNA, which, when excised by an alkylpurine DNA glycosylase, results in a high number of cytotoxic AP sites. We compared the viability of HeLa cells exposed to a dilution series of inhibitor alone to a combination of a fixed MMS concentration with the same dilution series of inhibitor by using a standard CellTiter Glo luminescence assay. This technique measures the number of viable cells in culture based on quantitation of the ATP present, which signals the presence of metabolically active cells. The assay was further optimized for 384-well plates, allowing a high-throughput testing of multiple hits at multiple concentrations, a scope of investigation previously impossible due to the very low throughput of the traditionally applied colony formation assay.
# From the 223 compounds found positive in the gel-based APE1 assays, exclusion of the most promiscuous hits, that is, those that were both DNA binders and EndoIV-inhibitory, yielded a set of 170 compounds (Figure 3). This shortened group of hits was tested in the cell-based potentiation assay for their ability to dose-dependently enhance sensitivity of HeLa cells to the alkylating agent MMS.
# APE1 [2] = target: T2, APE1 (Homo sapiens, UniProt P27695); assay: Fluorogenic kinetic qHTS APE1 incision assay (primary screen and retest of cherrypicked samples); assay type: biochemical;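 further: purified APE1 cleaving a fluorophore/dark-quencher labelled 17-mer duplex DNA bearing a tetrahydrofuran AP site, fluorescence rise followed kinetically over the first 2 min, inhibition normalized to controls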
# T2 construct: made in house
# Procedure: All screening operations were performed on a fully integrated robotic system (Kalypsys, San Diego, CA) [28] with library plates screened proceeding from the lowest to the highest concentration to minimize compound carryover [26]. Vehicle-only plates, with DMSO being pin-transferred to the entire column 5–48 compound area, were included regularly throughout the screen in order to record any systematic shifts in assay signal. During the screen, reagent bottles were kept at 4°C and all liquid lines were covered with aluminum foil to minimize degradation.
# Screening data were corrected and normalized, and concentration–effect relationships was derived using in-house developed algorithms [25].
# To screen for inhibitors of APE1 incision activity, we employed a purified-enzyme biochemical assay with a model substrate featuring a red-shifted fluorescent reporter in combination with a dark non-emitting quencher. These moieties were incorporated as end labels onto a 17-mer double-stranded DNA fragment containing a centrally-located tetrahydrofuran AP site sugar mimetic, which serves as the APE1 cleavage site. Upon APE1-catalyzed strand scission immediately 5′ to the AP site analog, the shortened oligodeoxynucleotide carrying the fluorescent reporter spontaneously dissociates from the rest of the substrate, leading to an increase in fluorescence due to its spatial separation from the dark quencher (Figure 1A).
# Using a high-speed whole-plate fluorescence imager, the assay data for the entire screen was conducted in kinetic mode, with the APE1 incision reaction being monitored over the initial linear time frame of 2 min (Figure 1B). Thus, any inhibition associated with each sample was computed from the alteration in fluorescence intensity over the time-course measurement period, after normalization against the appropriate controls (Figure 1B, inset).
# APE1 [3] = target: T2, APE1; assay: Gel-based APE1 incision assay with fluorescence (TAMRA) detection; assay type: biochemical
# APE1 [4] = target: T2, APE1; assay: Fluorescence polarization (FP) displacement assay of APE1 binding to AP-DNA probe; settings: read-out: FP IC50;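 further: TAMRA 5′-labeled duplex DNA with THF abasic site (5 nM) and APE1 (20 nM), Mg2+-free buffer, 15 min at room temperature, inhibition seen as lowered polarization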
# APE1 [5] = target: T2, APE1; assay: Gel-based radiotracer (32P) APE1 incision assay; assay type: biochemical; parameters: concentration or dose not given beside the values; settings: percent incision shown; entries 1-112;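 further: APE1 incision reactions ran 5 min at 37 °C, with cleaved product and intact substrate resolved electrophoretically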
# [6] = initial quantitative high-throughput screen, read-out: APE1 qHTS IC50
# [7] = retest of cherrypicked sample, read-out: APE1 Retest IC50
# [8] = estimated IC50, fluorophore detection, entries 113-223, read-out: F-PAGE Assay IC50
# [9] = entries 113-223: fluorophore detection, estimated IC50, read-out: Gel-based electrophoretic separation assay with fluorophore detection, estimated IC50 (column headed Radiotracer Assay (%Activity))
# T2 sequence (P27695 whole entry): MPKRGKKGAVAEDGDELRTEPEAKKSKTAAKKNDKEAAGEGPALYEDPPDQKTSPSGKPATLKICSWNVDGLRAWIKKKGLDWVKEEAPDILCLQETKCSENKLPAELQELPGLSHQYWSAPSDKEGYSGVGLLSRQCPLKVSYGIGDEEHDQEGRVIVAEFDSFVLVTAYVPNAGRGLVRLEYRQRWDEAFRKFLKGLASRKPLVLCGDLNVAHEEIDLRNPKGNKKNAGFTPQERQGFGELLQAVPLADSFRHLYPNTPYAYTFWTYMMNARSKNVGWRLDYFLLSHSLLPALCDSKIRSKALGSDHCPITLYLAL
SMILES,IC50 (E. coli Endo IV) [µM],IC50 [1] [µM],MMS Assay: potentiation of the genotoxic effect of methylmethane sulfonate (HeLa cells),MMS Assay (HeLa cells),IC50 (APE1 [2]; [6]) [µM],IC50 (APE1 [2]; [7]) [µM],IC50 (APE1 [3]; [8]) [µM],IC50 (APE1 [4]) [µM],IC50 (APE1 [3]; [9]) [µM],Radiotracer Assay (%Activity) (APE1 [5]) [%]
Cc1ccccc1CN1CCN(Cc2cc(=O)c3ccccc3[nH]2)CC1CCO (stereo not drawn) [MLS001000225],> 57,> 57,I,,,,,,,
CC(C)C(=O)NC(C)C(c1cccs1)N1CCN(c2ccccc2)CC1 (stereo not drawn) [MLS000092582],> 57,> 57,,I,,,,,,
COc1ccccc1N(CC(=O)NCc1ccco1)S(=O)(=O)c1ccc(C)cc1 [MLS001219746],> 57,> 57,,,21.2,16.2,8.9,> 57,,
CCOc1ccc(NC(=O)CN(C)C(=O)C2COc3ccccc3O2)cc1OCC (stereo not drawn) [MLS002248300],> 57,> 57,,,21.2,32.4,,> 57,20,
Cc1cccc(NC(=O)CNC(=O)CCc2nc3sc4c(c3c(=O)[nH]2)CCCC4)c1C [MLS001156641],> 57,45.7,,,10.6,36.3,4,> 57,,
O=S(=O)(Nc1ccccc1)c1cccc2nsnc12 [MLS000999698],> 57,> 57,,,7.5,22.9,10,40.8,,
COCCN(C(=O)COC(=O)c1cc2c(s1)CCC2)c1c(N)n(Cc2ccccc2)c(=O)[nH]c1=O [MLS001080179],> 57,> 57,,,0.8,1.1,0.3,> 57,,
Cc1ccc(NC(=O)CN(C)C(=O)c2cc(-c3ccco3)nc3ccccc23)cc1 [MLS001099510],> 57,> 57,,,5.3,22.9,3.5,> 57,,
COc1ccc(NC(=O)CN(C)C(=O)c2cccc(-n3cccc3)c2)cc1 [MLS001097639],> 57,> 57,,,2.4,18.2,3.5,> 57,,
COc1ccc(OCCOc2ccc(/C=C3\C(=N)N4N=C(C)SC4=NC3=O)cc2)cc1 [MLS001359901],> 57,> 57,,,9.5,5.8,,> 57,10,
COc1cc(-c2nnc(COC(=O)c3ccc(C)o3)o2)cc(OC)c1OC [MLS001139127],> 57,> 57,,,23.8,32.4,,> 57,14.1,
COc1cccc(NC(=O)CN(C)C(=O)c2cc(-c3ccco3)nc3ccccc23)c1 [MLS001156783],> 57,> 57,,,10.6,10.2,7.9,> 57,,
COc1ccc(S(=O)(=O)N2CCOCC2)cc1NC(=O)c1cccc(-n2cccc2)c1 [MLS001161521],> 57,> 57,,,3.8,7.3,4.5,> 57,,
CC(=O)Nc1sc2c(c1-c1nc3ccccc3s1)CCN(C(C)C)C2 [MLS000419194],,> 57,,P,14.1,3.9,,2.5,,2
CCOC(=O)C1CCCN(C(=O)c2cc(-c3ccco3)nc3ccccc23)C1 (stereo not drawn) [MLS002245402],> 57,32.4,,,8.4,18.2,4,> 57,,
NS(=O)(=O)c1cccc(NC(=O)c2ccc3nc[nH]c3c2)c1 [MLS001177378],> 57,32.4,,,26.7,45.7,,> 57,12.6,
